Row | SMILES | melting point [°C]
1 | CCN1CCNC1=C[N+](=O)[O-] | 110 to 111
2 | COC(=O)C=C1C[N+]([O-])=C(c2ccccc2)c2cc(Cl)ccc2N1 | 215 to 216
3 | CC1(C)COP(=O)(Cc2ccc([N+](=O)[O-])cc2)OC1 | 176 to 177
4 | CN(C)CCc1c[nH]c2ccc(Oc3ccc(Br)cc3)cc12 | 160 to 162
5 | CCC(C)(CC)N=C(NC#N)Nc1cc(Cl)cc(Cl)c1 | 148 to 150
6 | O=C(NNc1ccc(NC(=S)NCc2ccccc2)cc1)c1ccc(F)cc1 | 186 to 188
7 | C=C(CCCCC)C(=O)c1ccc(OCC(=O)O)c(Cl)c1Cl | 103 to 106
8 | CC(=O)n1cc(Cl)c(-c2cccc3c2OC(F)(F)O3)n1 | 131
9 | O=Cc1ccc(OCCBr)cc1 | 49.5 to 50
10 | COC(=O)c1ccc(-c2ccc(-c3cn([C@H]4CN5CCC4CC5)nn3)s2)cc1F | 250
11 | O=C1N(Cc2ccccn2)c2ccccc2C12COc1c(Cl)cc3c(c12)OCCO3 (stereo not drawn) | 197 to 199
12 | Nc1cc(-n2cccn2)nc(-c2ccc(Br)o2)n1 | 221 to 222
13 | CCc1nc(CO)c(CO)[nH]1 | 173 to 174
14 | Cc1c2c(c(Cl)n1C)NC(=O)CN=C2c1ccccc1 | 195
15 | COC(=O)C=Cc1csc2ccccc12 | 63 to 65
16 | CC1=CC(O)C(O)C(C)(C)CC1O (stereo not drawn) | 138 to 139
17 | CCCCOC(=O)c1cc(=O)c2c3c(cc(Cl)c2o1)-c1ccc(S(=O)(=O)O)cc1CO3 | 95 to 97
18 | COc1cc(-c2ccccc2F)c(Cl)cc1C(=O)N1Cc2ccc(C(=O)N(CC(O)CO)CC(O)C(O)CO)n2Cc2ccccc21 (stereo not drawn) | 192 to 194
19 | O=[N+]([O-])c1c(O)c(Cl)cc(F)c1-c1ncc(C(F)(F)F)cc1Cl | 67 to 72
20 | COc1c(Br)ccc2oc(COc3ccc(-c4ccc(S(=O)(=O)NC(C(=O)O)C(C)C)cc4)cc3)c(C)c12 (stereo not drawn) | 198 to 200
21 | O=C(O)CCC(=NOCc1ccc(OCc2coc(-c3ccccc3)n2)cc1)c1ccccc1 | 144 to 145
22 | CO[C@@H]1[C@@H](OC)[C@H](C)O[C@@H](ON=Cc2ccc(-c3cn(-c4ccc(OC(F)(F)F)cc4)cn3)cc2)[C@@H]1OC | 178
23 | Nc1cc(-c2ccnc3c(C(=O)c4cccs4)cnn23)cs1 | 174 to 176
24 | O=C(O)c1cccc(=O)n1OCc1ccccc1 | 176 to 177
25 | C#CCCOc1cc(/C=C/C(=O)Nc2ccccc2C(=O)O)ccc1OC | 197 to 198

Row | SMILES | melting point [°C]
26 | COC(=O)CC(NC(C)=O)c1ccccc1 (stereo not drawn) | 58 to 67
27 | CCCN(C)C(=O)N(C)C(=O)Nc1ccccc1 | 63 to 64
28 | CN(C(=O)OC[C@@]1(C)Cn2cc([N+](=O)[O-])nc2O1)c1ccc(OC(F)(F)F)cc1 | 144 to 145
29 | CCOC(=O)NC(=S)Nc1ccsc1C(=O)OC | 165 to 167
30 | Nc1ccc(Oc2ccc3sncc3c2)c(C(F)(F)F)c1 | 136
31 | CC(=NO)c1ccc(Nc2c3ccccc3nc3occc23)cc1 | 264 to 265
32 | CS(=O)(=O)c1ccc(-c2oc3ccccc3c(=O)c2-c2cccc(F)c2)cc1 | 225
33 | C=CCCCn1ncc2c(N)c(C(=O)OCC=C)c(C)nc21 | 62 to 62.5
34 | CSc1cc(C)nc(SC)c1NC(=O)C=CC1=C(c2ccccc2)c2ccccc2OC1 | 225 to 227
35 | CS(=O)(=O)c1ccc(-c2sc(COc3ccc(Cl)cc3)nc2-c2ccc(F)cc2)cc1 | 140 to 143
36 | Fc1ccccc1C1=NCc2c[nH]cc2-c2ccc(Cl)cc21 | 197 to 199
37 | CN(c1ccc(Cl)cc1[N+](=O)[O-])S(=O)(=O)c1ccc(Cl)s1 | 85 to 86
38 | O=C(O)CCN=c1sc2ccccc2s1 | 203 to 204
39 | C=C(c1ccccc1OCCCCl)c1cccc2[nH]ccc12 | 70 to 72
40 | NS(=O)(=O)Oc1cccc(Cl)c1 | 82 to 83
41 | N[C@H](C(=O)O)[C@H](S)c1ccccc1 | 107 to 108
42 | CCOc1ccc(C=CCCCCC(=O)O)cc1 | 62 to 63
43 | Cc1nc2c(OCc3ccccc3F)cccn2c1CC#N | 172 to 173
44 | O=C(NCCCn1ccnc1)c1cccc(Cl)c1 | 125 to 127
45 | COc1cc(OCc2ccccc2)ccc1C(O)c1cc(Cl)ccc1N (stereo not drawn) | 101 to 103
46 | COc1ccc(C2(c3cccc(CCc4ccccc4)n3)OCCCO2)cc1OC | 86 to 87
47 | CC(C)Oc1ccc([N+](=O)[O-])cc1C(F)(F)F | 34 to 36
48 | C#CCOC(=O)c1cc(C)oc1C | 35 to 37
49 | Cc1c(-c2ccccc2)oc2c(S(=O)(=O)N(C)CCO)cccc2c1=O | 146 to 147

The remaining lines, values ahead:

Row | melting point [°C] | SMILES
50 | 159 to 161 | CCC(C)(NC(=O)c1cc(Cl)cc(Cl)c1)C(=O)CCl (stereo not drawn)
51 | > 152 | Cc1nc(-c2cccc(NC(=O)N3CCc4c(cnc5[nH]nc(Br)c45)C3)c2)no1
52 | 82 to 84 | Cc1ccc(S(=O)(=O)OCC2Cc3cc(Cl)c4c(c3O2)CCC4)cc1 (stereo not drawn)
53 | 128 to 131 | CCN(CC)c1ccc(NC(=O)c2ccc(C)c(Nc3nccc(-c4cccnc4)n3)c2)cc1C(F)(F)F
54 | 214 | Cn1c(=O)c2c(Cl)cccc2n2cnc(C(=O)OCC3CC3)c12
55 | 191 to 192 | Cn1c(C(F)(F)F)cc(=O)n(-c2ccc3snc(COCC(=O)O)c3c2)c1=O
56 | 145 to 146 | CS(=O)(=O)c1ccc(C(=O)O)c(Cl)c1C1=NOCC1
57 | 198 to 200 | CCn1cc(C(=O)O)c(=O)c2cc(F)c(N3CCC3CN)nc21 (stereo not drawn)
58 | 167 to 168 | CCCC(CCC)n1[nH]c(Cc2c(C)n(C(=O)c3ccc(Cl)cc3)c3ccc(OC)cc23)cc1=O
59 | 115 to 117 | Cc1ccc(-c2nc3ccccc3o2)c(F)c1
60 | 218 | Cc1ccc2c(c1)c(O)c(C(=O)NC1CCCCC1)c(=O)n2C
61 | 220 to 222 | NC(=O)C1CCN(c2c(Br)cncc2-c2ccccc2)CC1
62 | 211 to 213 | COc1cc(OC)n2nc(NS(=O)(=O)c3c(Cl)cccc3Cl)nc2n1
63 | 130 to 132 | CC(=O)N1CCN(Cc2ccc(O)cc2)CC1
64 | 190 to 191 | Cn1c(=O)c(-c2ccccc2Cl)cc2cnc(N[C@H]3CC[C@H](N)CC3)nc21
65 | 268 to 274 | Cc1cccc2cc3c(=O)n(C)cc(C(=O)N[C@@H](C)C(=O)N(C)C)c3nc12
66 | 229 to 230 | COC(=O)c1cc(NC(=O)c2ccnc(C)c2)c2cc(Cc3ccc(F)cc3)cnc2c1O
67 | 162 to 165 | CN(Cc1ccc(CCn2cnc3cc(-c4ccc(Cl)cc4)sc3c2=O)cc1)C(=O)CCl
68 | 178 to 179 | CC1Cn2c(nc3c(cnn3C)c2=O)S1 (stereo not drawn)
69 | 154 to 155 | CCc1nn(C2CCCC2)c2cc(C3=NOC(C)(c4noc(-c5cc(OC)cc(OC)c5)n4)C3)ccc12 (stereo not drawn)
70 | 199 to 201 | CNC(=O)Cn1c(-c2cccc(Br)c2)nc2cccnc21
71 | 197 | O=C(CN1CCOCC1)N1CCN(c2ccc(O)cc2)CC1
72 | 78 to 80 | CCOC(=O)C(=Cc1ccc(-c2ccc(Cl)cc2)o1)C(=O)OCC
73 | 131 to 132 | O=C(CCC(=O)N1CCC(c2ccc(Cl)cc2)CC1)c1ccc2c(c1)CCN(C(=O)C(F)(F)F)CC2
74 | 105 to 108 | Cc1ccc2c([N+](=O)[O-])c(F)ccc2n1
75 | 125 to 128 | CNC(=O)c1c(-c2ccccc2)noc1CC(=O)c1ccccc1
76 | 153 to 157 | COc1ccc(C(=O)Nc2ccc(C)c(Cl)c2)cc1N

Row | melting point [°C] | SMILES
77 | 82.5 to 83 | COc1ccc(/C=C(\C#N)c2ccccn2)cc1OC1CCCC1
78 | 151 | O=C(O)Cc1ccc(C2CC(=O)c3ccccc32)cc1 (stereo not drawn)
79 | 208 to 209 | CC(=O)OC1CSC(Oc2cccc3cc(C(C)=O)oc23)C(OC(C)=O)C1OC(C)=O (stereo not drawn)
80 | 203 to 206 | CCn1cc(C(=O)O)c(=O)c2cc(F)c(N3CCC(CN)CC3)nc21
81 | 163 to 164 | Cc1cn(-c2ccc(N)cc2C(F)(F)F)c(C)n1
82 | 97 | CCOC(=O)/C=C1\CCOc2ccc(N)cc21
83 | 193 to 194 | NNC(=O)c1ccc2ncccc2c1
84 | 256 to 258 | COc1ccc(-n2cc(C(=O)O)c(=O)c3cc(F)c(F)cc32)cc1
85 | 128 to 129 | Cc1ccccc1CC(=O)c1cc(O)c(O)c([N+](=O)[O-])c1
86 | 147 to 149 | CCNC(=O)Cc1ccc2ccn(C3CCN(CCc4ccccc4F)CC3)c2c1
87 | 142 to 144 | Cc1cccnc1C(=O)c1[nH]c2cc(Cl)ccc2c1NC(=O)CC(C)C
88 | 141 to 144 | Cc1cccc2c(=O)n([C@H](C)[C@](O)(Cn3cncn3)c3ccc(F)cc3F)cnc12
89 | 174 to 175 | CN(CC(=O)[C@@H](N)Cc1ccccc1)C(=O)N1CCC[C@H]1C(=O)O
90 | 235 to 236 | CC(C)(C(=O)O)C(O)c1ccnc(-c2nc(=O)c3ccccc3s2)c1 (stereo not drawn)
91 | 193 to 195 | COc1ccc(C(=O)Nc2ccc(C(C)(C)C(N)=O)cc2)cc1OC
92 | 132 to 133 | Clc1ccc2nc(CN3CCC(c4ccccc4)CC3)cn2c1
93 | 116 | O=C(CSCc1ccc(Cl)cc1Cl)NO
94 | 165 to 166 | CC(C)(C)OC(=O)Nc1cccc(OC2CCN(c3ccncc3)CC2)c1
95 | 55 to 57 | COC(=O)C(Cl)=C(NC1CC1)C(C(=O)OC)C(=O)C(F)F (stereo not drawn)
96 | 132 to 134 | C=CC(=O)Oc1c(Cc2cc(C)cc(C(C)(C)C)c2O)cc(C)cc1C(C)(C)C
97 | 106 to 108 | CCOC(=O)C(=NNc1ccc(C)cc1C)C(C)=O
98 | 201 to 203 | COc1ccc2c(c1)C(=O)c1ccc(C(=O)O)cc1CC2
99 | 310 to 312 | CCOC(=O)c1cnc2c3cc(NS(C)(=O)=O)ccc3ncn2c1=O
100 | 206 to 208 | COc1cccc(OC)c1C(=O)NC(=S)NNC(=O)c1ccc(Cl)cc1
101 | 161 to 163 | COc1cc(N(C)C)c(Cl)cc1C(=O)NCC1CN(Cc2ccc(C#N)cc2)CCO1 (stereo not drawn)
102 | 273 | COc1cc(C=C(C#N)C(=O)Nc2ccccc2)cc(Cl)c1O
103 | 195 to 200 | CC(NC(=O)Cc1cc(F)cc(F)c1)C(=O)NC1C(=O)NCc2cc(F)ccc21 (stereo not drawn)

— a melting point compilation (Tetko et al.; mined from patent text by program, amines drawn as free bases though some values may be those of a salt)
